Data published in ChEMBL document CHEMBL1201862, “PubChem BioAssay data set” (2004).
Activity calls are given as the source filed them.

Legend:
[1] = target: T1, Short transient receptor potential channel 4 (Mus musculus, UniProt Q9QUQ5); assay: calcium entry via TRPC4 opening agents – cell-based, HEK293 TRPC4/mu-opioid, Fluo-4 calcium, dose response (AID 434937); format: functional
T1 sequence (Q9QUQ5 whole entry): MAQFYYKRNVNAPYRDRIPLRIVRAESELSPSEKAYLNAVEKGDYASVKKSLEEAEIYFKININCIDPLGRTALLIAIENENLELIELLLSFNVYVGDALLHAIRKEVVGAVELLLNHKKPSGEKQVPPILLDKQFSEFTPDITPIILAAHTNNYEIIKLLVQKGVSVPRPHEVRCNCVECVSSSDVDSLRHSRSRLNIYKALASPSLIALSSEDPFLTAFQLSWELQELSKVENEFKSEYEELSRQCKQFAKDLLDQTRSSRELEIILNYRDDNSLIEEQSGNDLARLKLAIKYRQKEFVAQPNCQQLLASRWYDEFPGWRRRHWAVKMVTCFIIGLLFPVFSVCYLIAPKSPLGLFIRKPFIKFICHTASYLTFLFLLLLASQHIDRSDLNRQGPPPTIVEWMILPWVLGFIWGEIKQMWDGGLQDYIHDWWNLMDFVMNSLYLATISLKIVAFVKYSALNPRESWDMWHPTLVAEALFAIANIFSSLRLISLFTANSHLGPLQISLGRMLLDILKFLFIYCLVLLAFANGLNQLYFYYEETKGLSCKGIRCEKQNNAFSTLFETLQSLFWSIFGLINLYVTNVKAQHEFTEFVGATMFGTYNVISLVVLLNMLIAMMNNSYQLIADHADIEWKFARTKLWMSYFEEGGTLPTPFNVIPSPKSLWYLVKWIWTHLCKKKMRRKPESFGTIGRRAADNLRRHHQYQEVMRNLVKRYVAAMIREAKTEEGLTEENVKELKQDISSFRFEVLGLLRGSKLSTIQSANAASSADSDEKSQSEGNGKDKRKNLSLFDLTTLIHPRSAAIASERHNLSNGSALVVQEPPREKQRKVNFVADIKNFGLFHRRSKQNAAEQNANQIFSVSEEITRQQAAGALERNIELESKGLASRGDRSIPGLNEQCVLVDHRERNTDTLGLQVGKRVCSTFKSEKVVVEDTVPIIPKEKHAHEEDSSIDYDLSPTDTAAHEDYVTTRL

[2] = target: T2, Microphthalmia-associated transcription factor (Homo sapiens, UniProt O75030); assay: reducers of TRPM1 reporter luminescence, concentration series – cell-based, SK-MEL-5, cherry-picked, set 3, MITF inhibitor project, dose response (AID 493073); format: functional;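 note: SK-MEL-5 melanoma cells with luciferase driven by the MITF target TRPM1 promoter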
T2 sequence (O75030 whole entry): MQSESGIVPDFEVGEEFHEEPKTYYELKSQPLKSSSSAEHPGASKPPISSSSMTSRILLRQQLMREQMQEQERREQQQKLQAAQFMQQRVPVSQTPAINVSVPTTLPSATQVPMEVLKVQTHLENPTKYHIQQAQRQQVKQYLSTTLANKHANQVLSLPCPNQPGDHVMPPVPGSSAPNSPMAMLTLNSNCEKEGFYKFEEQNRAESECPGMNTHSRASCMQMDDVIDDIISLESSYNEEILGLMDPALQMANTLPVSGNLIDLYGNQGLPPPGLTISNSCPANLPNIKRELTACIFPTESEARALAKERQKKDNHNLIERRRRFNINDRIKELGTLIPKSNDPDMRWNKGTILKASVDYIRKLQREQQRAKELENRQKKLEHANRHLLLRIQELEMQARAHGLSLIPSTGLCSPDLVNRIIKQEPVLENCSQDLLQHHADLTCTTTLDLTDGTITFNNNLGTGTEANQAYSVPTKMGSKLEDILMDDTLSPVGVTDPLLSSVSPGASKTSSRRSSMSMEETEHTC

[3] = viability of PTEN-deleted HCT116 cells – cell-based, HCT116 PTEN knockout, dose response (AID 1047); format: functional;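 note: HCT116 colon tumor cells with PTEN knocked out; cells exposed to compound for 60 hours before readout; potency for loss of cell viability measured by luminescence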
[4] = THP-1 cell cytotoxicity, dose response, cytotoxicity control for non-replicating M. tuberculosis project (AID 489025); format: functional
[5] = HepG2 cell cytotoxicity, dose response, cytotoxicity control for non-replicating M. tuberculosis project (AID 489018); format: functional; settings: Mycobacterium tuberculosis
[6] = cells; format: functional
[7] = Vero E6 cell cytotoxicity, dose response, cytotoxicity control for non-replicating M. tuberculosis project, secondary assay (AID 492998); format: functional, VeroE6; settings: Vero C1008
[8] = viability of HCT116 lacking mutant beta-catenin – cell-based, human colon tumor, dose response (AID 1045); format: functional;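 note: HCT116 colon tumor cells with beta catenin knocked out; cells exposed to compound for 60 hours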
[9] = target: T3, Heat shock factor protein 1 (Mus musculus, UniProt P38532); assay: enhancement of HSF1-driven luciferase signal – cell-based, NIH3T3, luminescence, dose retest, confirmation (AID 435004); format: functional;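 note: stress induced by proteasome inhibitor MG132 added 30 min after compound; luciferase reporter driven by HSF1 response element in NIH3T3 cells; actives raise luminescence as potentiators of the MG132 stress response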
T3 sequence (P38532 whole entry): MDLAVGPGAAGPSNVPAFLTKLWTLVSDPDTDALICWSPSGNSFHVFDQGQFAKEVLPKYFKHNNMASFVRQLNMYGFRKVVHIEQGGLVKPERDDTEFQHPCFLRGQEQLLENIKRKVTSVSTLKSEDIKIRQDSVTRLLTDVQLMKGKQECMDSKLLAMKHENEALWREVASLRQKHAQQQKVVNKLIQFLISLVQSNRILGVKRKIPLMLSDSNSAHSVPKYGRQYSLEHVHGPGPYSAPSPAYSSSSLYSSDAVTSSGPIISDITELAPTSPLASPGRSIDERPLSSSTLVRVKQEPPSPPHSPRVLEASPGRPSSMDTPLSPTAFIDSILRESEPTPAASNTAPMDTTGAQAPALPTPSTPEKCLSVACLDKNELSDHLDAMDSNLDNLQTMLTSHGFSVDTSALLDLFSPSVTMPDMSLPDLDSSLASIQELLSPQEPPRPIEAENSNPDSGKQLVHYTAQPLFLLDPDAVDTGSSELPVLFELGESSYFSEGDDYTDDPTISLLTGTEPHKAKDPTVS

[10] = Trypanosoma cruzi growth suppression in host cells – NIH3T3 host cells, beta-gal luminescence, confirmation (AID 2044); format: functional, cell-based;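 note: intracellular parasites grown in NIH/3T3 mouse fibroblasts as host cells; luminescent beta-galactosidase reporter signal from transgenic T. cruzi replicating inside host cells; inhibitors lower the luminescence signal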
[11] = NIH3T3 cell viability loss – ATP luminescence, mouse fibroblasts, counter-screen, dose response (AID 2010); format: functional, cell-based;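 note: cells exposed to compound for about 90 hours before reading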
[12] = blockers of CRF-binding protein–CRF-R2 complex – cell-based, uHTS hits, 384-well, dose response (AID 651639); format: functional, Homo sapiens; settings: read-out: IC50_Mean
[13] = target: T4, Corticotropin-releasing factor receptor 2/Corticotropin-releasing factor-binding protein (Homo sapiens, UniProt P24387+Q13324); assay: activators of CRF receptor 2 with binding protein – uHTS hits, confirmation (AID 602473); format: functional; settings: read-out: EC50_Mean
T4 sequence (Q13324 whole entry): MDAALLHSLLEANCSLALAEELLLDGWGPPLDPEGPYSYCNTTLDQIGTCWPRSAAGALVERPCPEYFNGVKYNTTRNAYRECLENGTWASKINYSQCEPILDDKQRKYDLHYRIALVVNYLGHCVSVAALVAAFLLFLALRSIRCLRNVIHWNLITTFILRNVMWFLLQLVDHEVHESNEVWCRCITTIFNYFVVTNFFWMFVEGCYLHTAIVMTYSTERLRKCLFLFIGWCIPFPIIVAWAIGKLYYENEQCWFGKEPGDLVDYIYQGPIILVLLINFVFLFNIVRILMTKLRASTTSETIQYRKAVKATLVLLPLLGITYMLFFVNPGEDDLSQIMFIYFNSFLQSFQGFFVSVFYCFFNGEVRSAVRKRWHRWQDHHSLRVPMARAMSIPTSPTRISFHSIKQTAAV
T4 sequence (P24387 whole entry): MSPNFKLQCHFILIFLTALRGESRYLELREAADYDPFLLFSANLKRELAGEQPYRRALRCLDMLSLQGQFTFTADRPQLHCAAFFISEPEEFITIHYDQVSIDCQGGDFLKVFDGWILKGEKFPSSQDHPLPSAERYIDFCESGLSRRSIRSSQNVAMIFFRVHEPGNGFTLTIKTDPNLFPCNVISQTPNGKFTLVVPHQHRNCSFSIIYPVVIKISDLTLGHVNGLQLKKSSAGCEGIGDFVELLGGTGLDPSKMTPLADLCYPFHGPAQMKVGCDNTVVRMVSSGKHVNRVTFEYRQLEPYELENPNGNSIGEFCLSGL

[14] = target: T4, Corticotropin-releasing factor receptor 2/Corticotropin-releasing factor-binding protein; assay: Dose Response confirmation of uHTS hits for small molecule antagonists of the CRF-binding protein and CRF-R2 receptor complex.; format: functional; settings: read-out: IC50_Mean
[15] = target: T5, High affinity choline transporter 1 (Homo sapiens, UniProt Q9GZV3); assay: human choline transporter blockers, potency – cell-based, 5-point CRC, membrane potential dye, dose response (AID 504840); format: functional
T5 sequence (Q9GZV3 whole entry): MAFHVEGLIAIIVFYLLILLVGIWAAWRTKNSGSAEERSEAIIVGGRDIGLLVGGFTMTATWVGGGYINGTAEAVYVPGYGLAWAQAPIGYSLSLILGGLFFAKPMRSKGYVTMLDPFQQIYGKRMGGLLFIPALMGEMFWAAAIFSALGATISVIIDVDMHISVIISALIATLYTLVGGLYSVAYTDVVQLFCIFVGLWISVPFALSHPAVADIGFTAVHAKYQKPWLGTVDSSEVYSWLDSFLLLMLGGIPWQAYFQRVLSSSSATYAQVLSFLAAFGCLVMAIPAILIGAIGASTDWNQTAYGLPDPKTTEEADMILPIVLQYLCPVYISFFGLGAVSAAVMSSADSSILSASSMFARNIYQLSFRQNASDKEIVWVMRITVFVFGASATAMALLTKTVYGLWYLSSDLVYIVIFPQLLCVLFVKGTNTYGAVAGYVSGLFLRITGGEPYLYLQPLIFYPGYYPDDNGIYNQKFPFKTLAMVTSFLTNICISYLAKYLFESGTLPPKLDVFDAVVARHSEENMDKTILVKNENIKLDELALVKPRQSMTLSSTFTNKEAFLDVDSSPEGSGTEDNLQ

[16] = target: Ras and Rab interactor 1/Tyrosine-protein kinase ABL1 (Homo sapiens, UniProt P00519+Q13671); format: functional;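 note: biochemical TR-FRET dose-response test measuring inhibition of binding between Rin1 and Abl proteins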
Ras and Rab interactor 1/Tyrosine-protein kinase ABL1, sequence (P00519 whole entry): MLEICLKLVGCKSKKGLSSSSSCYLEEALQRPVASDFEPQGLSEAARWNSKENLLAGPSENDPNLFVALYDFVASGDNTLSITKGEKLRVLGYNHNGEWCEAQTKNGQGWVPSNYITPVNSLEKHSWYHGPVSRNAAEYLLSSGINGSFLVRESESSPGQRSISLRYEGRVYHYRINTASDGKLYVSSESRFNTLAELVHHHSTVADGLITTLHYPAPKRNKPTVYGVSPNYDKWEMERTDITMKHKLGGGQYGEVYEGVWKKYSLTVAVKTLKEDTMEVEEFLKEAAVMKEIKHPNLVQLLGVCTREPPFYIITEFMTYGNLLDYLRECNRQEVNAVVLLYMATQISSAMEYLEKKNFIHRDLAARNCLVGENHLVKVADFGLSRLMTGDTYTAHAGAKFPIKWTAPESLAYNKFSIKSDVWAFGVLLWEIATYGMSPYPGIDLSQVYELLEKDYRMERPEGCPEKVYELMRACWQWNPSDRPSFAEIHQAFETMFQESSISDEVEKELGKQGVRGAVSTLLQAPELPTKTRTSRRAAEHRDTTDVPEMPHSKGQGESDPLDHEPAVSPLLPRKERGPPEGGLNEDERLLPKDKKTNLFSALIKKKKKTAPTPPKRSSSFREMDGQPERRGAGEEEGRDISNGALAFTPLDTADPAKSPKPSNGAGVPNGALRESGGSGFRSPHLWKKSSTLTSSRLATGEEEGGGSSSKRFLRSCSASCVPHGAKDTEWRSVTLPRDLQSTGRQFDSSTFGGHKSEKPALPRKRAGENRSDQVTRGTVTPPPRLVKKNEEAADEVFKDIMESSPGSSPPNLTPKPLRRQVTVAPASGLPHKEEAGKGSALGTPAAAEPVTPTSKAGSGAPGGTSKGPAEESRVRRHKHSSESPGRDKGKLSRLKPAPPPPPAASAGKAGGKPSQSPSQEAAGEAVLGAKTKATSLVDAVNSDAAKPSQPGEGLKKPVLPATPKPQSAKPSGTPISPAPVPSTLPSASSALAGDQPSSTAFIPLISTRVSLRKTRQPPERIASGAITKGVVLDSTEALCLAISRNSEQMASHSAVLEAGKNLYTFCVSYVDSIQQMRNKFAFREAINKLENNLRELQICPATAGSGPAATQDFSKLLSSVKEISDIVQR
Ras and Rab interactor 1/Tyrosine-protein kinase ABL1, sequence (Q13671 whole entry): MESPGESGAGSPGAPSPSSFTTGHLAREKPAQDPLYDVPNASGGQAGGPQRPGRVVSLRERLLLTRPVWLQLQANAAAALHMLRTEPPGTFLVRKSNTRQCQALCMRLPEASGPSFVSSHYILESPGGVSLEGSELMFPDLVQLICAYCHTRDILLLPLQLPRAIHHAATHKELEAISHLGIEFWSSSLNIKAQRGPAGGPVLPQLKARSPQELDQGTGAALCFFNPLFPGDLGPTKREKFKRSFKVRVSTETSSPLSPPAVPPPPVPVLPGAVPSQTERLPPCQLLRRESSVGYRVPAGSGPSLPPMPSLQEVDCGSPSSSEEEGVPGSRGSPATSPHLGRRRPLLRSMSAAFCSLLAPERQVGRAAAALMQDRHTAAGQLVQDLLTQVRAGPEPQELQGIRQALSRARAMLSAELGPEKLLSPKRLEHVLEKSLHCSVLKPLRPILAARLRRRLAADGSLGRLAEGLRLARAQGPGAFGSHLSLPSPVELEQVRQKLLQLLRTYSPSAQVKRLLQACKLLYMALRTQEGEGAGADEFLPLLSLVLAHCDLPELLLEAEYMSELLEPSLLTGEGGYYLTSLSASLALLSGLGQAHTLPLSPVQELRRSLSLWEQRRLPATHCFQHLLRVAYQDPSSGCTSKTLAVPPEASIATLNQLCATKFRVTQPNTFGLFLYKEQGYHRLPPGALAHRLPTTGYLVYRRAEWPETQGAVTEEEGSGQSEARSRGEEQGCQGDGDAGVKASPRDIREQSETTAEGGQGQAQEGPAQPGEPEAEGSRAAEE

[17] = system: Streptococcus; assay: GAS UMAA2166 growth inhibition – luminescence, BacTiterGlo, counter-screen for streptokinase expression inhibitor project, dose response (AID 1915); format: functional, organism-based;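 note: potency for reduction of bacterial viability or growth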
[18] = target: FAD-linked sulfhydryl oxidase ALR (Homo sapiens, UniProt P55789); assay: ALR-catalysed DTT oxidation blockers – biochemical, H2O2 detection, luminescence, cherry-pick, dose response (AID 493248)
FAD-linked sulfhydryl oxidase ALR, sequence (P55789 whole entry): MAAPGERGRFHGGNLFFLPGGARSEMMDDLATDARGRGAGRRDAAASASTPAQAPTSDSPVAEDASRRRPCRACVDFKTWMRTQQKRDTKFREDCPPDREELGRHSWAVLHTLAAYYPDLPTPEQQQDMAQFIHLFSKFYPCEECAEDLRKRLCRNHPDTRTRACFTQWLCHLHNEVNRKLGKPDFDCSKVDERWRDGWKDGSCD

[19] = target: T6, Streptokinase A (Streptococcus pyogenes serotype M1, UniProt P10520); assay: viability-normalized secreted streptokinase activity reduction – plasminogen activation absorbance, OD405, dose response (AID 1914); format: functional, Streptococcus pyogenes M1 GAS;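 note: secreted streptokinase activity via plasminogen activation per viability signal from cell pellet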
T6 sequence (P10520 whole entry): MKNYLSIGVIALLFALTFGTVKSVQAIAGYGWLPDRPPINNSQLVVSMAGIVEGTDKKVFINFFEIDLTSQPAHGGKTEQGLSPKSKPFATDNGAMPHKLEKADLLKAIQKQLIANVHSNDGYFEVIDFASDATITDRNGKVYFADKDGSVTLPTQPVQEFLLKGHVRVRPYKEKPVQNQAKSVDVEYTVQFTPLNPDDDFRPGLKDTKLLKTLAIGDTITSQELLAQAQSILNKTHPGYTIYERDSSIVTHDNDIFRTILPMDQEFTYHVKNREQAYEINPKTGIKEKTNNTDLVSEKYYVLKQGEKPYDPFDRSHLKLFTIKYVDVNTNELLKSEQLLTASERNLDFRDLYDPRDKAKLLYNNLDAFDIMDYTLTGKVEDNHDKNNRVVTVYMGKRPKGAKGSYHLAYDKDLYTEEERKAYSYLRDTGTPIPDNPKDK

[20] = system: Streptococcus sp. 'group A'; assay: Streptococcus pyogenes SK(-)GAS viability under kanamycin – luminescence, BacTiterGlo, confirmation, counter-screen for streptokinase expression inhibitor project, dose response (AID 1900); format: functional, organism-based
[21] = target: T7, Sentrin-specific protease 8 (Homo sapiens, UniProt Q96LD8); format: functional
T7 sequence (Q96LD8 whole entry): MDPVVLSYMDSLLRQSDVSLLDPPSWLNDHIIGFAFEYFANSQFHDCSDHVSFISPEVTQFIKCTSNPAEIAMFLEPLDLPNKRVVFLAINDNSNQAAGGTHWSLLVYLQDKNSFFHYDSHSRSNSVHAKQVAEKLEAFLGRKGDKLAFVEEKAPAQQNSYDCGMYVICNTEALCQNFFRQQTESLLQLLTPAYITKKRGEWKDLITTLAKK

[22] = target: T7, Sentrin-specific protease 8; format: functional; remark: listed apart in the source
[23] = target: Genome polyprotein (dengue virus type 2, UniProt P29990); assay: flavivirus cap methylation enzyme inhibition – biochemical, confirmation dose response, primary screen (AID 588689); format: functional
Genome polyprotein, sequence (P29990 2492-3391 limits assumed): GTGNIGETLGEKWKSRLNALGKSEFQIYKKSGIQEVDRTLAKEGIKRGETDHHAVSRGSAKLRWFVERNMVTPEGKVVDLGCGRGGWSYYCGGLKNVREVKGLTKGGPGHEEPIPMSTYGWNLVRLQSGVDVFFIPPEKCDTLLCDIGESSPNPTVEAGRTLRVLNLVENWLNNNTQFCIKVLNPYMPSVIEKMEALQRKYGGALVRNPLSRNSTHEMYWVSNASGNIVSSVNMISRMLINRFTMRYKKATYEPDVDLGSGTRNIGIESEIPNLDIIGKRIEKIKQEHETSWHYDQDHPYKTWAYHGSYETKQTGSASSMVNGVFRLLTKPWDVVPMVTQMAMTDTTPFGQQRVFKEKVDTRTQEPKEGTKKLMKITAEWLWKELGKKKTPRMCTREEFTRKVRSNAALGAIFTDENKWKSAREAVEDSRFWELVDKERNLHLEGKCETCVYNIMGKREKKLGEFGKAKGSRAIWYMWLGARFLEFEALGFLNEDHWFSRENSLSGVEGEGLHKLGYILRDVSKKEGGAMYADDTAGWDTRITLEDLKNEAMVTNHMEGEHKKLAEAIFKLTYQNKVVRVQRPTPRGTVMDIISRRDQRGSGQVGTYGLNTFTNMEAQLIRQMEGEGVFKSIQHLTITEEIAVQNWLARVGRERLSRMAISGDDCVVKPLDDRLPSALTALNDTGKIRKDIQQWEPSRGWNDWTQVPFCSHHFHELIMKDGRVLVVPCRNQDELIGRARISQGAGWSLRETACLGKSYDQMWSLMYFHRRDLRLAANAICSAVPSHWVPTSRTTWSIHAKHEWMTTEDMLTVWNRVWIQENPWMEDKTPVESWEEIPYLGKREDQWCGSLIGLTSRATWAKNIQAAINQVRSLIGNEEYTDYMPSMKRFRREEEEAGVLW

CC1CC(C)CN(CCCNC(=O)c2nn(C)c3c2CS(=O)(=O)c2ccccc2-3)C1 (configuration not stated)
EC50 [1]: 0.237 µM (active)

O=[N+]([O-])c1ccc(-n2nnnc2-c2ccccc2)c([N+](=O)[O-])c1
AC50 [2]: 7.37 µM (active)
EC50 [3]: 4.92 µM (active)
CC50 [4]: 19.6 µM (active)
CC50 [5]: 19.2 µM (active)
IC50 [6]: 5.22 µM (active)
CC50 [7]: 8.41 µM (active)
EC50 [8]: 5.3 µM (active)
EC50 [9]: 9.09 µM (active)
EC50 [10]: 1.75 µM (active)
EC50 [11]: > 60 µM (not active)

COc1ccc(Oc2ccc(C(F)(F)F)cc2NC(=O)c2ccc(OC)cc2)cc1
IC50 [12]: 7.95 µM (active)
EC50 [13]: > 53 µM (inactive)
IC50 [14]: < 0.368 µM (active)

Cc1ccc(NC(=O)c2ccc(CN3CC(=O)N4CCCCC4C3=O)cc2)c(C)c1 (configuration not stated)
IC50 [15]: 4.47 µM (active)

COc1ccc(-n2c3c(cc(C(=O)NNc4ccccc4)c2=O)C(=O)CC(C)(C)C3)cc1
EC50 [1]: 1.06 µM (active)

CC(C)c1ccc(NC(=O)CSc2nnc(CN3CCOCC3)n2C)cc1
IC50 [16]: 14.2 µM (inactive)

Oc1cc2ccccc2cc1-c1nnc(S)o1
IC50 [12]: 13.4 µM (active)
EC50 [13]: > 53 µM (inactive)
EC50 [17]: > 150 µM (not active)
AC50 [18]: 0.301 µM (active)
EC50 [19]: 23.5 µM (active)
EC50 [20]: 10.3 µM (active)
IC50 [14]: 10.5 µM (active)

CC(C)N1C(=O)CCC1C(=O)N1CCCc2ccccc21 (configuration not stated)
IC50 [21]: > 100 µM (inactive)
IC50 [22]: 9.12 µM (active)

COc1cccc(/C=C2\SC(=S)N(NC(=O)c3ccncc3)C2=O)c1
IC50 [15]: 12.6 µM (active)

C=CCNc1ncnc2c1ncn2[C@H]1CN(Cc2ccc(-c3ccccc3)cc2)C[C@@H](CO)O1
IC50 [16]: 24.2 µM (inactive)

O=c1c(Sc2ccccc2)c(C(F)(F)F)[nH]n1-c1ccccc1
IC50 [12]: > 20 µM (inactive)
EC50 [13]: > 53 µM (inactive)
IC50 [23]: 59.5 µM (active)
IC50 [14]: 22.3 µM (active)
